{"source": "ChEMBL document CHEMBL5137058", "about": "“Therapeutic Strategies to Target the Androgen Receptor” (J Med Chem, 2022)", "key": {"[1]": {"test": "Oral bioavailability in mouse", "format": "ADME, organism-based", "conditions": "in vivo"}, "VCaP": {"test_system": "VCaP", "test": "Antiproliferative activity against human VCaP cells", "format": "functional, cell-based"}, "LNCaP [2]": {"test_system": "LNCaP", "test": "Antitumor activity against human LNCaP cells expressing Androgen receptor F877L mutant xenografted in mouse assessed as tumor growth inhibition at 30 mg/kg, po administered daily", "format": "functional", "conditions": "read-out: TGI"}, "Androgen receptor [3]": {"target": "T1, Androgen receptor (Homo sapiens, UniProt P10275)", "T1 sequence (P10275 whole entry)": "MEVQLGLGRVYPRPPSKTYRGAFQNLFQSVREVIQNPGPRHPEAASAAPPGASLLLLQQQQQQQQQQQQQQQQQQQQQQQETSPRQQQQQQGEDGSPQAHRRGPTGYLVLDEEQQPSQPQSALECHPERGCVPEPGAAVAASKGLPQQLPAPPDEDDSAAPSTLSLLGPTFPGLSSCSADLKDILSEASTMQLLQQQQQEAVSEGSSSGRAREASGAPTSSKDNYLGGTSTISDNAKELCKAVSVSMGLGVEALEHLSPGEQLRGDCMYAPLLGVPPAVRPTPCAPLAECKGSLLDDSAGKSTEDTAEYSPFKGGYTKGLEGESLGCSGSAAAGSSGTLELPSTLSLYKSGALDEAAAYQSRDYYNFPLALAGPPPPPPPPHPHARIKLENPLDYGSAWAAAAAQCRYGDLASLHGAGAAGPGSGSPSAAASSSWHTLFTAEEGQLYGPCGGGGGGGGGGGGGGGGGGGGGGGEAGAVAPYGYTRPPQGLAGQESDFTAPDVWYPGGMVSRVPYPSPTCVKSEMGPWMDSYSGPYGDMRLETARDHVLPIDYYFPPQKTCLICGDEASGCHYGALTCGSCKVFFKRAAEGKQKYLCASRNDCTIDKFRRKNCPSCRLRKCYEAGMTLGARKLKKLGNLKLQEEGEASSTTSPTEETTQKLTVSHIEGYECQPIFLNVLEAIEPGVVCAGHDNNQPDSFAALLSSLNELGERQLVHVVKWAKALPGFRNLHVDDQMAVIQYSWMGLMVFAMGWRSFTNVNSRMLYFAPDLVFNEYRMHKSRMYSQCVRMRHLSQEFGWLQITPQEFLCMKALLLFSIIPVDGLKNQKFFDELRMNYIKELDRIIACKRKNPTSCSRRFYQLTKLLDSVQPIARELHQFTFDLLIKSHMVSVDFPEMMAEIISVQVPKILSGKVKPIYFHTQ", "test": "Binding affinity to Androgen receptor (unknown origin)"}, "Androgen receptor [4]": {"target": "T1, Androgen receptor", "test": "Agonist activity at Androgen receptor (unknown origin) measured by androgen response element luciferase assay"}, "[5]": {"test": "Inhibition of human LNCaP cell growth at 10 uM measured after 24 hrs by AlamarBlue staining method", "format": "functional"}, "[6]": {"target": "T2, Androgen receptor (Homo sapiens) (UniProt P10275)", "T2 sequence (whole entry)": "T1 sequence (P10275 whole entry)", "test": "Antagonist activity at Androgen receptor in human LNCaP cells assessed as inhibition of PSA expression at 10 uM measured by ELISA assay", "format": "cell-based", "parameters": "scale not given: the % may be the effect or the level left"}, "MR49F": {"test_system": "MR49F", "test": "Antiproliferative activity against human MR49F cells", "format": "functional, cell-based"}, "LNCaP [7]": {"test_system": "LNCaP", "test": "Antiproliferative activity against human LNCaP cells", "format": "functional, cell-based"}, "Androgen receptor [8]": {"target": "T1, Androgen receptor", "test": "Antagonist activity at Androgen receptor in human LNCaP cells assessed as inhibition of Binding Function 3 (BF3) of AR measured by enhanced green fluorescent protein transcriptional (eGFPT) assay", "format": "cell-based"}, "[9]": {"test": "In vivo agonist activity at Androgen receptor in male rat assessed as increase in prostate weight at 0.1 mg/kg, po administered for 14 days", "format": "functional", "conditions": "time 14 day"}, "[10]": {"test": "In vivo agonist activity at Androgen receptor in male rat assessed as increase in levator ani muscle weight at 0.1 mg/kg, po administered for 14 days", "format": "functional", "conditions": "time 14 day"}, "Androgen receptor [11]": {"target": "T1, Androgen receptor", "test": "Activation of human Androgen receptor N/C (N-terminal/C-terminal) interaction"}, "Androgen receptor [12]": {"target": "T1, Androgen receptor", "test": "Agonist activity at human Androgen receptor expressed in African green monkey CV-1 cells measured by ARE-luciferase assay", "format": "cell-based"}, "Rattus norvegicus [13]": {"test_system": "Rattus norvegicus", "test": "Antagonist activity in mature male Sprague-Dawley rat assessed as decrease in seminal vesicle and prostate weight at 15 mg/kg, po administered once a day for 14 days", "format": "functional", "parameters": "scale not given: the % may be the effect or the level left", "conditions": "time 14 day"}, "Androgen receptor [14]": {"target": "T1, Androgen receptor", "test": "Antagonist activity at Androgen receptor in human MDA-MB-453 cells measured by SEAP reporter gene assay", "format": "cell-based"}, "Androgen receptor [15]": {"target": "T1, Androgen receptor", "test": "Displacement of [3H]DHT from Androgen receptor expressed in human MDA-MB-453 cells", "format": "cell-based"}, "[16]": {"test": "In vivo agonist activity at Androgen receptor in rat assessed as increase in levator ani muscle weight administered orally for 14 days", "format": "functional", "conditions": "336 h, route po, time 14 day"}, "[17]": {"test": "Half-life in plasma of rat", "format": "ADME"}, "[18]": {"target": "Protein cereblon/Androgen receptor (Homo sapiens, UniProt P10275+Q96SW2)", "sequence (Q96SW2 whole entry, one chain of several)": "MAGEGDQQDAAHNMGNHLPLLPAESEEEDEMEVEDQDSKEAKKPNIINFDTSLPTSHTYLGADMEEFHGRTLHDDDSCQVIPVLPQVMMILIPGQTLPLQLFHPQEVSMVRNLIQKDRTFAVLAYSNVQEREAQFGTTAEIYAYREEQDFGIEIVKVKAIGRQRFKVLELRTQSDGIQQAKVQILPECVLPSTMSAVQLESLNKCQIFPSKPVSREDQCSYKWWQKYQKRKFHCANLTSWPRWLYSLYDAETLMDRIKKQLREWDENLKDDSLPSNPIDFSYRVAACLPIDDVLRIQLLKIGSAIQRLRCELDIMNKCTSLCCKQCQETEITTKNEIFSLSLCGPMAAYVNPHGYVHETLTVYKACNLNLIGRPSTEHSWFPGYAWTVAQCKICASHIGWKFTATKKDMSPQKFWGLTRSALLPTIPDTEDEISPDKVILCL", "test": "Protac activity at CRBN/Androgen receptor in human LNCaP cells assessed as Androgen receptor degradation", "format": "cell-based"}, "LNCaP [19]": {"test_system": "LNCaP", "test": "Antitumor activity against human LNCaP cells xenografted in mouse assessed as decrease in PSA level at 25 mg/kg, sc", "format": "functional", "parameters": "scale not given: the % may be the effect or the level left"}, "[20]": {"test": "In vivo agonist activity at Androgen receptor in castrated rat assessed as increase in prostate weight at 2 mg administered orally per day for 5 days", "format": "functional", "conditions": "route po, time 5 day"}, "[21]": {"test": "In vivo agonist activity at Androgen receptor in castrated rat assessed as increase in levator ani muscle weight at 2 mg administered orally per day for 5 days", "format": "functional", "conditions": "route po, time 5 day"}, "Rattus norvegicus [22]": {"test_system": "Rattus norvegicus", "test": "Anti-androgenic activity in rat assessed as decrease in seminal vesicle weight at 2.58 microM/Kg, po administered twice daily for 7 days", "format": "functional", "parameters": "scale not given: the % may be the effect or the level left", "conditions": "time 7 day, at 2.58 µmol/kg"}, "[23]": {"test": "Oral bioavailability in rat", "format": "ADME, organism-based", "conditions": "in vivo"}, "Androgen receptor [24]": {"target": "T1, Androgen receptor", "test": "Antagonist activity at Androgen receptor (unknown origin) assessed as downregulation of AR"}, "Androgen receptor [25]": {"target": "Androgen receptor (Rattus norvegicus, UniProt P15207)", "sequence (P15207 whole entry S389L)": "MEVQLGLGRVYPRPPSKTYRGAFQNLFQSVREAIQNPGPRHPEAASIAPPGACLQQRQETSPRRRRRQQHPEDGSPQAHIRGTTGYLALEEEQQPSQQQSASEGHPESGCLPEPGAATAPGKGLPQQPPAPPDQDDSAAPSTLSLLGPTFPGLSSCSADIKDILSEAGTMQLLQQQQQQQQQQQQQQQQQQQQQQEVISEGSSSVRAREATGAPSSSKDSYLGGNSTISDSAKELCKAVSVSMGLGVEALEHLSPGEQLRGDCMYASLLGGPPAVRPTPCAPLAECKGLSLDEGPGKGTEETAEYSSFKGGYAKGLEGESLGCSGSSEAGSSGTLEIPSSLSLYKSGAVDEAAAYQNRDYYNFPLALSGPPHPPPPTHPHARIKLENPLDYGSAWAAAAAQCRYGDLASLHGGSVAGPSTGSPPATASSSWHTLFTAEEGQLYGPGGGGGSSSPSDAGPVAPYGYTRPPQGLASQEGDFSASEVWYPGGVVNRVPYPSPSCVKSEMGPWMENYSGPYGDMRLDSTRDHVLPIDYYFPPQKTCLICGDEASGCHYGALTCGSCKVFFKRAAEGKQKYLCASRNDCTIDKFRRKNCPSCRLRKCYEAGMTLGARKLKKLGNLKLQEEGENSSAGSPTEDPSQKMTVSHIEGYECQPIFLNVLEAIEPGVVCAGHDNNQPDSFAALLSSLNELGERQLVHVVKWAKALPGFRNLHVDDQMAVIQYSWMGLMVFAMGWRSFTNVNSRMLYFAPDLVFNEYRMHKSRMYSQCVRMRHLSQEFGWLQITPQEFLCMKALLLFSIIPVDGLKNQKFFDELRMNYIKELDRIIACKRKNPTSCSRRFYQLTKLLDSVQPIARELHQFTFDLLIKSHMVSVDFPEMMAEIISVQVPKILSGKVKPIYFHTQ", "description": "Binding affinity to rat Androgen receptor ligand binding domain measured by competitive ligand binding assay"}, "LNCaP [26]": {"test_system": "LNCaP", "test": "Antitumor activity against human LNCaP cells xenografted in mouse assessed as decrease in PSA level at 100 mg/kg, sc", "format": "functional", "parameters": "scale not given: the % may be the effect or the level left"}, "CWR22R": {"test_system": "CWR22R", "test": "Antiproliferative activity against human 22Rv1 cells expressing Androgen receptor H874Y mutant", "format": "functional, cell-based"}, "SC-3": {"test_system": "SC-3", "test": "Antiproliferative activity against mouse SC-3 cells", "format": "functional, cell-based"}, "LNCaP [27]": {"test_system": "LNCaP", "test": "Antiproliferative activity against human LNCaP cells expressing Androgen receptor […] mutant", "format": "functional, cell-based"}, "PC-3": {"test_system": "PC-3", "test": "Antiproliferative activity against androgen-independent human PC-3 cells", "format": "functional, cell-based"}}}
{"compound": "N#Cc1ncc(N2C(=O)C3(CCC3)N(c3ccc(OC4CCNCC4)nc3)C2=S)cc1C(F)(F)F", "note": "[TRC-253]", "values": [{"measurement": "bioavailability", "setting": "[1]", "result": 45, "unit": "%"}, {"measurement": "IC50", "setting": "VCaP", "result": 290, "unit": "nM"}, {"measurement": "inhibition in vivo at 30 mg/kg", "setting": "LNCaP [2]", "result": 87, "unit": "%"}]}
{"compound": "C[C@](O)(CCOc1ccc(F)cc1)C(=O)N1CCc2c(C#N)cccc21", "values": [{"measurement": "IC50", "setting": "Androgen receptor [3]; read-out: IC50", "result": 12.7, "unit": "nM"}, {"measurement": "EC50", "setting": "Androgen receptor [4]", "result": 2.5, "unit": "nM"}]}
{"compound": "COc1cc(/C=N/NC(=O)c2cc3c(ccc4ccccc43)o2)cc(OC)c1O", "values": [{"measurement": "inhibition at 10 µM", "setting": "[5]", "result": 30, "unit": "%"}, {"measurement": "Activity", "setting": "[6]", "result": 30, "unit": "%"}]}
{"compound": "Brc1ncn(-c2csc(N3CCOCC3)n2)c1Br", "values": [{"measurement": "IC50", "setting": "MR49F", "result": "< 500", "unit": "nM"}, {"measurement": "IC50", "setting": "LNCaP [7]", "result": "< 500", "unit": "nM"}]}
{"compound": "CC(C)C(NC(=O)c1cc2ccc(F)cc2[nH]1)c1ccco1", "note": "(stereo not drawn)", "values": [{"measurement": "IC50", "setting": "Androgen receptor [8]", "result": 430, "unit": "nM"}]}
{"compound": "Cc1c(/N=C2\\O[C@@H](C(F)(F)F)[C@@H]3[C@@H](O)CCN23)ccc(C#N)c1Cl", "values": [{"measurement": "Activity", "setting": "[9]", "result": 100, "unit": "%"}, {"measurement": "Activity", "setting": "[10]", "result": 100, "unit": "%"}]}
{"compound": "N#Cc1ccc(-c2ccc(O)cc2F)[nH]1", "values": [{"measurement": "EC50", "setting": "Androgen receptor [11]", "result": 1210, "unit": "nM"}, {"measurement": "EC50", "setting": "Androgen receptor [12]", "result": 0.34, "unit": "nM"}]}
{"compound": "CNC(=O)[C@]12C(=O)N(c3ccc(C#N)c(C(F)(F)F)c3)C(=O)[C@H]1[C@H]1C[C@H](F)[C@@H]2C1", "values": [{"measurement": "Activity", "setting": "Rattus norvegicus [13]", "result": 35, "unit": "%"}, {"measurement": "IC50", "setting": "Androgen receptor [14]", "result": 91, "unit": "nM"}, {"measurement": "Ki", "setting": "Androgen receptor [15]", "result": 8, "unit": "nM"}]}
{"compound": "CC[C@H]1[C@@H]2[C@@H](O)CCN2C(=O)N1c1ccc(C#N)c(Cl)c1C", "values": [{"measurement": "ED50", "setting": "[16]", "result": 0.09, "unit": "mg/kg"}, {"measurement": "half-life", "setting": "[17]", "result": 5.5, "unit": "h"}]}
{"compound": "C[C@](O)(COc1ccc(OCCOCCOc2cccc3c2C(=O)N(C2CCC(=O)NC2=O)C3=O)cc1)C(=O)Nc1ccc(I)c(C#N)c1", "note": "(stereo partly drawn)", "values": [{"measurement": "DC50", "setting": "[18]", "result": 5200, "unit": "nM"}]}
{"compound": "Cc1nc(O[C@H]2C(C)(C)[C@H](NC(=O)c3cnc4ncccn34)C2(C)C)ccc1C#N", "values": [{"measurement": "Activity", "setting": "LNCaP [19]", "result": ">90", "unit": "%"}]}
{"compound": "C[C@@]12CC(C(F)(F)F)=NN1C(=O)N(c1ccc(C#N)c(C(F)(F)F)c1)C2=O", "values": [{"measurement": "Activity", "setting": "[20]", "result": 11, "unit": "%"}, {"measurement": "Activity", "setting": "[21]", "result": 75, "unit": "%"}]}
{"compound": "N#Cc1ccc(CN2CCN(c3ccc4nnc(C(F)(F)F)n4n3)CC2)cc1", "values": [{"measurement": "Activity", "setting": "Rattus norvegicus [22]", "result": 80, "unit": "%"}, {"measurement": "IC50", "setting": "Androgen receptor [3]; read-out: pIC50 (converted)", "result": "> 79400", "unit": "nM"}, {"measurement": "bioavailability", "setting": "[23]", "result": 100, "unit": "%"}, {"measurement": "IC50", "setting": "Androgen receptor [24]", "result": "> 1580", "unit": "nM"}]}
{"compound": "C[C@](O)(Cn1ccc2cc(F)ccc21)C(=O)Nc1ccc(C#N)c(C(F)(F)F)c1", "values": [{"measurement": "Ki", "setting": "Androgen receptor [25]", "result": "> 10000", "unit": "nM"}]}
{"compound": "CC1(C)[C@H](NC(=O)c2cnn(CCO)c2)C(C)(C)[C@H]1Oc1ccc(C#N)c(Cl)c1", "values": [{"measurement": "Activity", "setting": "LNCaP [26]", "result": ">90", "unit": "%"}]}
{"compound": "COc1cccc(C(=O)Nc2ccc(Oc3ccc(O)cc3)c(C)c2)c1", "values": [{"measurement": "IC50", "setting": "CWR22R", "result": 220, "unit": "nM"}, {"measurement": "IC50", "setting": "SC-3", "result": 750, "unit": "nM"}, {"measurement": "IC50", "setting": "LNCaP [27]", "result": 43, "unit": "nM"}, {"measurement": "IC50", "setting": "PC-3", "result": "> 10000", "unit": "nM"}]}
